Source: ChEMBL document CHEMBL1142200, “Efficacy of delayed treatment with ST-246 given orally against systemic orthopoxvirus infections in mice” (Antimicrob Agents Chemother, 2007)
Activity calls are given as the source filed them. The calls are words filed in the database; no cut-off is given here.

Legend:
Mus musculus [1] = assay: Effect on mortality of A/NCr mouse inoculated with 4100 PFU ectromelia virus at 100 mg/kg after 4 hrs of viral infection, ip once daily for 14 days; type: functional; settings: route intraperitoneal
Mus musculus [2] = assay: Effect on mortality of BALB/c mouse inoculated with Cowpox virus BR at 15 mg/kg after 24 hrs of viral infection, ip for 5 days relative to control; type: functional; settings: route intraperitoneal
Mus musculus [3] = assay: Effect on mortality of BALB/c mouse inoculated with Cowpox virus at 15 mg/kg after 48 hrs of viral infection, ip once daily for 5 days relative to control; type: functional; settings: route intraperitoneal
Mus musculus [4] = assay: Effect on mortality of A/NCr mouse inoculated with ectromelia virus at 100 mg/kg after 72 hrs of viral infection, ip once daily for 10 days relative control; type: functional; settings: route intraperitoneal
[5] = Selectivity index, ratio of CC50 for HFF cells to EC50 for Vaccinia virus WR infected HFF cells; type: functional
Cowpox virus [6] = assay: Reduction of Cowpox virus BR replication in BALB/c mouse spleen at 15 mg/kg after 24 hrs of viral infection, ip for 5 days; type: functional, organism-based; design: dose 15 mg/kg
Mus musculus [7] = assay: Effect on mortality of BALB/c mouse inoculated with Cowpox virus at 15 mg/kg after 4 hrs of viral infection, ip once daily for 5 days relative to control; type: functional; settings: route intraperitoneal
Cowpox virus [8] = assay: Reduction of Cowpox virus BR replication in BALB/c mouse kidney at 15 mg/kg after 24 hrs of viral infection, ip for 5 days; type: functional, organism-based; design: dose 15 mg/kg
Vaccinia virus [9] = assay: Reduction of Vaccinia virus WR replication in BALB/c mouse kidney at 15 mg/kg after 24 hrs of viral infection, ip for 5 days; type: functional, organism-based; design: dose 15 mg/kg; settings: Orthopoxvirus vaccinia
[10] = Selectivity index, ratio of CC50 for HFF cells to EC50 for Cowpox virus Brighton infected HFF cells; type: functional
Mus musculus [11] = assay: Effect on mortality of A/NCr mouse inoculated with ectromelia virus at 100 mg/kg after 0 hrs of viral infection, ip once daily for 10 days relative control; type: functional; settings: route intraperitoneal
[12] = Cytotoxicity against HFF cells; type: cell-based; settings: human
Mus musculus [13] = assay: Effect on mortality of A/NCr mouse inoculated with 4.1 PFU ectromelia virus at 100 mg/kg after 4 hrs of viral infection, ip once daily for 14 days; type: functional; settings: route intraperitoneal
Vaccinia virus [14] = assay: Reduction of Vaccinia virus WR replication in BALB/c mouse liver at 15 mg/kg after 24 hrs of viral infection, ip for 5 days; type: functional, organism-based; design: dose 15 mg/kg; settings: Orthopoxvirus vaccinia
Mus musculus [15] = assay: Effect on mortality of BALB/c mouse inoculated with Cowpox virus BR at 50 mg/kg after 24 hrs of viral infection, po for 9 days; type: functional, organism-based; design: dose 50 mg/kg
Mus musculus [16] = assay: Effect on mortality of A/NCr mouse inoculated with ectromelia virus at 100 mg/kg after 48 hrs of viral infection, ip once daily for 10 days relative control; type: functional; settings: route intraperitoneal
[17] = Selectivity index, ratio of CC50 for HFF cells to EC50 for Vaccinia virus Copenhagen infected HFF cells; type: functional
Mus musculus [18] = assay: Effect on mortality of A/NCr mouse inoculated with ectromelia virus at 100 mg/kg after 24 hrs of viral infection, ip once daily for 10 days relative control; type: functional; settings: route intraperitoneal
Mus musculus [19] = assay: Effect on mortality of A/NCr mouse inoculated with 410 PFU ectromelia virus at 100 mg/kg after 4 hrs of viral infection, ip once daily for 14 days; type: functional; settings: route intraperitoneal
Mus musculus [20] = assay: Effect on mortality of BALB/c mouse inoculated with Vaccinia virus WR at 15 mg/kg after 24 hrs of viral infection, ip for 5 days relative to control; type: functional; settings: route intraperitoneal
Mus musculus [21] = assay: Effect on mortality of BALB/c mouse inoculated with Cowpox virus at 15 mg/kg after 72 hrs of viral infection, ip once daily for 5 days relative to control; type: functional; settings: route intraperitoneal
Cowpox virus [22] = assay: Reduction of Cowpox virus BR replication in BALB/c mouse liver at 15 mg/kg after 24 hrs of viral infection, ip for 5 days; type: functional, organism-based; design: dose 15 mg/kg
Mus musculus [23] = assay: Effect on mortality of A/NCr mouse inoculated with 41 PFU ectromelia virus at 100 mg/kg after 4 hrs of viral infection, ip once daily for 14 days; type: functional; settings: route intraperitoneal
Vaccinia virus [24] = assay: Reduction of Vaccinia virus WR replication in BALB/c mouse spleen at 15 mg/kg after 24 hrs of viral infection, ip for 5 days; type: functional, organism-based; design: dose 15 mg/kg; settings: Orthopoxvirus vaccinia
Mus musculus [25] = assay: Effect on mortality of BALB/c mouse inoculated with Cowpox virus at 15 mg/kg after 24 hrs of viral infection, ip once daily for 5 days relative to control; type: functional; settings: route intraperitoneal

Nc1ccn(C[C@@H](CO)OCP(=O)(O)O)c(=O)n1.O.O [CIDOFOVIR]
Activity (Mus musculus [1]): 0% | Activity (Mus musculus [2]): 0% | Activity (Mus musculus [3]): 0% | Activity (Mus musculus [4]): 0% | Ratio CC50/EC50 [5]: >9.6 | Activity (Cowpox virus [6]): Active | Activity (Mus musculus [7]): 0% | Activity (Cowpox virus [8]): Active | Activity (Vaccinia virus [9]): Active | Ratio CC50/EC50 [10]: >7.7 | Activity (Mus musculus [11]): 0% | CC50 [12]: > 317 µM | Activity (Mus musculus [13]): 0% | Activity (Vaccinia virus [14]): Active | Activity (Mus musculus [15]): Active | Activity (Mus musculus [16]): 0% | Ratio CC50/EC50 [17]: >10.9 | Activity (Mus musculus [18]): 0% | Activity (Mus musculus [19]): 0% | Activity (Mus musculus [20]): 7% | Activity (Mus musculus [21]): 0% | Activity (Cowpox virus [22]): Active | Activity (Mus musculus [23]): 40% | Activity (Vaccinia virus [24]): Active | Activity (Mus musculus [25]): 0%
